Source: US7792665B2, “Method for designing a compound based on the three dimensional structure of phosphoinositide dependent protein kinase 1 (PDK1)” (Medical Research Council, priority 2002, dated 2010)
Substitutions are numbered along the chain they refer to. “Also recorded” adds a separate entry of the source. Where a SMILES comes first, the peptide text is derived from it. [ ]: non-standard residue; d: D form. pT = C[C@@H](OP(=O)(O)O)[C@H](N)C(=O)O

How the values were obtained:
PDK1[T148A] = biological target: T1, PDK1[T148A] (Homo sapiens, UniProt O15530, T148A); assay: Surface plasmon resonance (BiaCore) binding, PDK1[T148A]; design: made in house; host or cells: human embryonic kidney 293 cells (pEBG2T vector)
T1 sequence (O15530 1-556 T148A): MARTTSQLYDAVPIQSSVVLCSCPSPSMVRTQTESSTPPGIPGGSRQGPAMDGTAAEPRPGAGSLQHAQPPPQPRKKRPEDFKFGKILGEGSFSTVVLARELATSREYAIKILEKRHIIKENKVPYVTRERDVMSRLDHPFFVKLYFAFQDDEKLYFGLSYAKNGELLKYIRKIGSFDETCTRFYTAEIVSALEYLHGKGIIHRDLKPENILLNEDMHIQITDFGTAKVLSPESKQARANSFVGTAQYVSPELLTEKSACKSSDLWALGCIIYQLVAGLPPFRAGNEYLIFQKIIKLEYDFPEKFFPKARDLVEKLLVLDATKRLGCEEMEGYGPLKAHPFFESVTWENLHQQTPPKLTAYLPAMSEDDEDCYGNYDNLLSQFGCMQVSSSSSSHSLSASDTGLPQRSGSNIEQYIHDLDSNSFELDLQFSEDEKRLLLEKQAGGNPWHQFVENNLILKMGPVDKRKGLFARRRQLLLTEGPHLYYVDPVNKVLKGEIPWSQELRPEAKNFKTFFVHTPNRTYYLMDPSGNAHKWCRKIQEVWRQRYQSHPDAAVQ
Procedure: (§1) Binding and activation of wild type and mutant forms of PDK1 to a phosphopeptide derived from the hydrophobic motif of S6K1. The binding of the wild type (wt) PDK1 and indicated mutants to a phosphopeptide comprising the hydrophobic motif of S6K1 (S6K-pHM: […]*YVAPSV, where T* indicates phospho-threonine, SEQ ID NO:104) was analysed by surface plasmon resonance as described in the Materials and Methods.
(§2) A. The sensor chip SA was coated with 12RUs of the biotinylated S6K-pHM peptide and the binding was analysed following injection of 270 nM wild type PDK1, PDK1 [T148A] and PDK1 [K76A]. […] (data not shown).
B. As in A. except that binding was analysed over a range of PDK1 concentrations (2-2150 nM). The response level at the steady state binding is plotted versus the log of the PDK1 concentration. The estimated Kd was obtained by fitting the data to a sigmoid curve using Kaleidagraph software.
Binding was analysed in a BiaCore 3000 system (BiaCore AB, Stevenage, UK). Biotinylated S6K-pHM (Biotin-C12-[…](P)YVAPSV) (SEQ ID NO:104) or the non-phosphorylated form of this peptide S6K-HM was bound to an streptavidin-coated Sensor chip (SA) (12 response units, RU). […] Steady state binding was determined at each concentration. Dissociation of PDK1 from the phospho-peptide was monitored over a 1 min period. […]

PDK1[Q150A] [1] = biological target: T2, PDK1[Q150A] (Homo sapiens, UniProt O15530, Q150A); assay: Surface plasmon resonance (BiaCore) binding, PDK1[Q150A]; design: made in house; host or cells: human embryonic kidney 293 cells (pEBG2T vector)
T2 sequence (O15530 1-556 Q150A): T1 sequence (O15530 1-556 T148A) with A148T, Q150A
Procedure: as §1, §2
Binding was analysed in a BiaCore 3000 system (BiaCore AB, Stevenage, UK). Biotinylated S6K-pHM (Biotin-C12-[…](P)YVAPSV) (SEQ ID NO:104) or the non-phosphorylated form of this peptide S6K-HM was bound to an streptavidin-coated Sensor chip (SA) (12 response units, RU). 30 μl of wild type or the indicated mutant GST-PDK1 were injected at a flow rate of 30 μl/min, in buffer HBS-P (10 mM HEPES pH 7.4, 0.15M NaCl, 0.005% (by vol) polysorbate-20) supplemented with 1 mM DTT. Specific interactions between 56K-pHM and PDK1 proteins were obtained between the concentration range of 2-2150 nM PDK1. Steady state binding was determined at each concentration. Dissociation of PDK1 from the phospho-peptide was monitored over a 1 min period. […]

PDK1[Q150A] [2] = biological target: T2, PDK1[Q150A]; assay: PDK1 catalytic activity towards T308tide, activation by peptides, PDK1[Q150A]; type: biochemical; design: made in house
Procedure: C. Activation of the indicated forms of PDK1 by 56K-pHM and S6K-HM. PDK1 activity was measured using the peptide substrate (T308tide) in the presence of the indicated concentrations of 56K-pHM (closed circles) and S6K-HM (open circles) as described in the methods. Assays were performed in triplicate and similar results obtained in 2 separate experiments. The results are the average—SD for a single experiment.
The ability of wild type and mutant PDK1 to phosphorylate the synthetic peptide T308tide ([…] ([Biondi et al., 2000]) (SEQ ID NO:108) was carried out in 30 μl assays containing 100 ng of wild type or mutant PDK1, 50 mM Tris/HCl pH 7.5, 0.1% 13-mercaptoethanol, 10 mM MgCl2, 100 μM [32γ P]ATP (200 cpm/pmol), 0.5 μM microcystin-LR, 1 mM T308tide in the presence or absence of the indicated concentrations of the 56K-pHM peptide ([…](P)YVAPSV) (SEQ ID NO:104) or 56K-HM. peptide ([…]) (SEQ ID NO:105). After incubation for 10 min at 30° C., 25 μl of the resultant mixture was spotted into P81 phosphocellulose paper (2×2 cm) and the papers washed and analysed as described previously for assays of MAP kinase. Control assays were carried out in parallel in which either PDK1, or peptide substrate were omitted; these values were always less than 5% of the activity measured in the presence of these reagents. […]

## CC(C)C[C@H](NC(=O)[C@H](Cc1ccccc1)NC(=O)[C@@H](NC(=O)[C@H](CCC(N)=O)NC(=O)[C@H](CC(N)=O)NC(=O)[C@H](C)NC(=O)[C@H](CO)NC(=O)[C@H](CCC(=O)O)NC(=O)[C@@H](N)CO)C(C)C)C(=O)NCC(=O)N[C@@H](Cc1ccccc1)C(=O)N[C@H](C(=O)N[C@@H](Cc1ccc(O)cc1)C(=O)N[C@H](C(=O)N[C@@H](C)C(=O)N1CCC[C@H]1C(=O)N[C@@H](CO)C(=O)N[C@H](C(=O)O)C(C)C)C(C)C)[C@@H](C)OP(=O)(O)O [S6K-pHM] (H-SESANQVFLGF[pT]YVAPSV-OH; N-terminus and C-terminus assumed)
PDK1[T148A]; BiaCore, 270 nM PDK1
  dissociation of PDK1[T148A] from peptide compared with wild type PDK1 or PDK1[K76A]: markedly slower
PDK1[T148A]; relative to wild type PDK1
  higher affinity of PDK1[T148A] than wild type PDK1: about 10 fold
PDK1[Q150A] [1]
  binding of PDK1[Q150A] to peptide: No detectable binding; also recorded: did not detectably interact
PDK1[Q150A] [2]; peptide 0.3 and 1 mM
  activation of PDK1[Q150A]: 2-3 fold
PDK1[Q150A] [2]; peptide below 0.1 mM
  activation of PDK1[Q150A]: not significantly activated
